In ChEMBL document CHEMBL4033742, “Novel 3-fluoro-6-methoxyquinoline derivatives as inhibitors of bacterial DNA gyrase and topoisomerase IV” (Bioorg Med Chem Lett, 2017):
≈ marks a conversion by molar mass, not a printed value.

Columns and labels:
[1] = Inhibition of Staphylococcus aureus DNA gyrase
Streptococcus pyogenes = experiment: Antibacterial activity against Streptococcus pyogenes; type: functional
Staphylococcus aureus [2] = experiment: Antibacterial activity against Staphylococcus aureus containing DNA gyrase D83N mutations; type: functional
[3] = target: Voltage-gated inwardly rectifying potassium channel KCNH2 (Homo sapiens, UniProt Q12809); experiment: Inhibition of human ERG
Voltage-gated inwardly rectifying potassium channel KCNH2, sequence (Q12809 whole entry): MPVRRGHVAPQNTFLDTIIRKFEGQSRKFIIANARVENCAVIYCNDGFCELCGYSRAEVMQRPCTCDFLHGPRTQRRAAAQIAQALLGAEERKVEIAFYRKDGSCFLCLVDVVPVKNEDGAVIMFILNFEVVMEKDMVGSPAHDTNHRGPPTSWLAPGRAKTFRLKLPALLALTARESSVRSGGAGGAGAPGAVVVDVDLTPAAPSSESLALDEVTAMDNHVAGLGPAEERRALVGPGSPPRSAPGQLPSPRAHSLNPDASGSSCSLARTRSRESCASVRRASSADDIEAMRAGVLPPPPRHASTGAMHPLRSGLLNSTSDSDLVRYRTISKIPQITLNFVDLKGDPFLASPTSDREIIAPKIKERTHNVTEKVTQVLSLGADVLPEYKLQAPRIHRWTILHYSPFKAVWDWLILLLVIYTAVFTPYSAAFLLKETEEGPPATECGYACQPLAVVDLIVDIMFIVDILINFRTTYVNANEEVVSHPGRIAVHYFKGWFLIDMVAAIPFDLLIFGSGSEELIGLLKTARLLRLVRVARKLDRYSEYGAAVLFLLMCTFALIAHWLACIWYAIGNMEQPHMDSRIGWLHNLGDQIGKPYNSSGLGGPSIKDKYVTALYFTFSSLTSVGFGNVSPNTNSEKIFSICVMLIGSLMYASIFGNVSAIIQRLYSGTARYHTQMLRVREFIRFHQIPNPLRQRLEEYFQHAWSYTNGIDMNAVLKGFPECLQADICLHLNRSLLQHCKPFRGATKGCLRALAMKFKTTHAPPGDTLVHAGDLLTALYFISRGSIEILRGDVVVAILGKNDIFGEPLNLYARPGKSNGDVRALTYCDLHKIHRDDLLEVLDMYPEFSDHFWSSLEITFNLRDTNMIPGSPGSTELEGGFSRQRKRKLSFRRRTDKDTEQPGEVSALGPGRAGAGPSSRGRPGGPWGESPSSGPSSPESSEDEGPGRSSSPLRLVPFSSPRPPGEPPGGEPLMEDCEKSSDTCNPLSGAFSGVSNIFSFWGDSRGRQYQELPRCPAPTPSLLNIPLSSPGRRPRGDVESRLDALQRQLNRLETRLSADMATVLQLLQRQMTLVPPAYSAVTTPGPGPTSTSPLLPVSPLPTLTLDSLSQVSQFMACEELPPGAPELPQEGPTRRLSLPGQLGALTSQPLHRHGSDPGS

Staphylococcus aureus [4] = experiment: Antibacterial activity against fluoroquinolone-sensitive Staphylococcus aureus 1146; type: functional
Staphylococcus aureus [5] = experiment: Antibacterial activity against fluoroquinolone-resistant Staphylococcus aureus 1095; type: functional
Staphylococcus aureus [6] = experiment: Antibacterial activity against Staphylococcus aureus containing DNA gyrase M121K mutations; type: functional
[7] = Inhibition of Staphylococcus aureus DNA topoisomerase 4
Staphylococcus aureus [8] = experiment: Antibacterial activity against Staphylococcus aureus; type: functional
[9] = Stability assessed as increase in metabolism rate under in-vitro conditions; type: physicochemical
[10] = Ratio of fAUC in fluoroquinolone-resistant Staphylococcus aureus infected mouse neutropenic thigh model to MIC for fluoroquinolone-resistant Staphylococcus aureus
[11] = Volume of distribution at steady state in mouse at 10 mg/kg, iv; type: ADME, organism-based; details: in vivo, read-out: Vdss
[12] = Clearance in mouse at 10 mg/kg, iv; type: ADME, organism-based; details: in vivo
[13] = Volume of distribution at steady state in rat at 2 mg/kg, iv; type: ADME, organism-based; details: in vivo, read-out: Vdss
Cavia porcellus [14] = experiment: Cardiotoxicity in anesthetized guinea pig model assessed as prolongation of monophasic action potential duration at fCmax level; type: toxicity
[15] = Clearance in rat at 2 mg/kg, iv; type: ADME, organism-based; details: in vivo
[16] = Half life in rat at 2 mg/kg, iv; type: ADME, organism-based; details: in vivo
[17] = Fraction unbound in human plasma; type: ADME, cell-free
Staphylococcus aureus [18] = experiment: Antibacterial activity against fluoroquinolone-resistant Staphylococcus aureus infected in mouse neutropenic thigh model assessed as static dose required for bacterial stasis; type: functional
[19] = Fraction unbound in rat plasma; type: ADME, cell-free
[20] = Half life in mouse at 10 mg/kg, iv; type: ADME, organism-based; details: in vivo
[21] = Fraction unbound in mouse plasma; type: ADME, cell-free
Cavia porcellus [22] = experiment: Cardiotoxicity in anesthetized guinea pig model assessed as increase in cardiac alternans at fCmax level; type: toxicity
Cavia porcellus [23] = experiment: fCmax in anesthetized guinea pig model; type: ADME

| Compound | IC50 [1] [µM] | MIC90 (Streptococcus pyogenes) [µg/mL] | MIC (Staphylococcus aureus [2]) [µg/mL] | IC50 [3] [µM] | MIC (Staphylococcus aureus [4]) [µg/mL] | MIC (Staphylococcus aureus [5]) [µg/mL] | MIC (Staphylococcus aureus [6]) [µg/mL] | IC50 [7] [µM] | MIC90 (Staphylococcus aureus [8]) [µg/mL] | other results |
| --- | --- | --- | --- | --- | --- | --- | --- | --- | --- | --- |
| O=c1ccc2ncc(F)c3c2n1C[C@@]3(O)CN1CCC(NCc2cc3c(cn2)OCCO3)CC1 | 0.448 | 0.125 (≈ 0.267 µM) | 4 (≈ 8.56 µM) | > 300 | 0.125 (≈ 0.267 µM) | 0.31 (≈ 0.663 µM) | 8 (≈ 17.1 µM) | 4.96 | 0.5 (≈ 1.07 µM) |  |
| COc1ccc2ncc(F)c([C@@H](O)CC[C@@H]3CCN(C4CC(c5cc(F)cc(F)c5)C4)C[C@@H]3C(=O)O)c2c1 (stereo partly drawn) | 1.2 | 1 (≈ 1.89 µM) | 5.7 (≈ 10.8 µM) |  | 0.125 (≈ 0.236 µM) | 0.35 (≈ 0.662 µM) |  | 6.25 | 0.25 (≈ 0.473 µM) |  |
| COc1ccc2ncc(F)c([C@@H](O)CC[C@@H]3CCN(C4CC(c5cc(F)cc(F)c5F)C4)C[C@@H]3C(=O)O)c2c1 (stereo partly drawn) | 1.56 |  | 1 (≈ 1.83 µM) |  | ≤ 0.0625 | ≤ 0.0625 | 2 (≈ 3.66 µM) | 4.7 |  | Stability [9]: Unstable |
| COc1ccc2ncc(F)c([C@@H](O)CC[C@@H]3CCN(C4CC(c5ccccn5)C4)C[C@@H]3C(=O)O)c2c1 (stereo partly drawn) | 3.13 |  | > 64 |  | 1 (≈ 2.03 µM) | 16 (≈ 32.4 µM) |  | 50 |  |  |
| COc1ccc2ncc(F)c([C@@H](O)CC[C@@H]3CCN(C4CC(c5ccc(F)s5)C4)C[C@@H]3C(=O)O)c2c1 (stereo partly drawn) | 0.78 | 0.5 (≈ 0.968 µM) | 16 (≈ 31 µM) |  | ≤ 0.0625 | ≤ 0.0625 | 16 (≈ 31 µM) | 19 | 0.125 (≈ 0.242 µM) |  |
| COc1ccc2ncc(F)c([C@@H](O)CC[C@@H]3CCN(CCSc4cccs4)C[C@@H]3C(=O)O)c2c1 | 1.56 |  |  |  |  |  |  | 30.4 |  |  |
| COc1ccc2ncc(F)c([C@@H](O)CC[C@@H]3CCN(C4CC(c5cccc(F)c5F)C4)C[C@@H]3C(=O)O)c2c1 (stereo partly drawn) | 0.78 |  | 8 (≈ 15.1 µM) | 25 | ≤ 0.0625 | ≤ 0.0625 | 4 (≈ 7.57 µM) | 7.5 |  |  |
| N#Cc1ccc2ccc(=O)n(CCN3CC[C@H](NCc4cc5c(cn4)OCCO5)[C@H](F)C3)c2c1 |  |  |  |  |  |  |  |  |  | Ratio [10]: 36 |
| COc1ccc2ncc(F)c([C@@H](O)CC[C@@H]3CCN(C4CC(c5ccccc5F)C4)C[C@@H]3C(=O)O)c2c1 (stereo partly drawn) | 0.78 | 0.5 (≈ 0.979 µM) | 16 (≈ 31.3 µM) |  | ≤ 0.0625 | 0.125 (≈ 0.245 µM) | 16 (≈ 31.3 µM) | 19 | 0.125 (≈ 0.245 µM) |  |
| COc1ccc2ncc(F)c([C@@H](O)CC[C@@H]3CCN(C4CC(c5c(F)cccc5F)C4)C[C@@H]3C(=O)O)c2c1 (stereo partly drawn) | 4.61 | 0.5 (≈ 0.946 µM) | 3.2 (≈ 6.05 µM) | 45.3 | ≤ 0.063 | 0.079 (≈ 0.149 µM) | 2.8 (≈ 5.3 µM) | 18.3 | 0.125 (≈ 0.236 µM) |  |
| COc1ccc2ncc(F)c([C@@H](O)CC[C@@H]3CCN(C4CC(c5ncccc5F)C4)C[C@@H]3C(=O)O)c2c1 (stereo partly drawn) | 6.25 | 2 (≈ 3.91 µM) | 32 (≈ 62.6 µM) | 10.7 | 0.125 (≈ 0.244 µM) | 0.5 (≈ 0.977 µM) | 32 (≈ 62.6 µM) | 30 | 1 (≈ 1.95 µM) |  |
| COc1ccc2ncc(F)c([C@@H](O)CC[C@@H]3CCN(C4CC(c5cc(F)ccc5F)C4)C[C@@H]3C(=O)O)c2c1 (stereo partly drawn) | 0.977 | 0.25 to 0.5 (≈ 0.473 to 0.946 µM) | 3.4 (≈ 6.43 µM) | 85.9 | 0.088 (≈ 0.166 µM) | 0.11 (≈ 0.208 µM) | 2 (≈ 3.78 µM) | 5.47 | 0.125 (≈ 0.236 µM) | Vd [11]: 1.24 L/kg; clearance [12]: 13.7 mL/min/kg; Vd [13]: 1.82 L/kg; Activity (Cavia porcellus [14]): Non-Toxic; clearance [15]: 30.9 mL/min/kg; half-life [16]: 40.8 min; fraction unbound [17]: 0.054; Activity (Staphylococcus aureus [18]): 79.7 to 82.8 mg/kg/day; fraction unbound [19]: 0.197; half-life [20]: 63 min; fraction unbound [21]: 0.201; Ratio [10]: 39; Activity (Cavia porcellus [22]): Non-Toxic; fCmax (Cavia porcellus [23]): 27.5 µM |
| COc1ccc2nccc([C@@H](O)CC[C@@H]3CCN(C4CC(c5ccccc5)C4)C[C@@H]3C(=O)O)c2c1 (stereo partly drawn) | 1.19 | 1 to 2 (≈ 2.11 to 4.21 µM) |  |  |  |  | ≥ 64 | 32.1 | 0.25 to 1 (≈ 0.527 to 2.11 µM) | Vd [11]: 1.06 L/kg; clearance [12]: 36 mL/min/kg; half-life [16]: 19.8 min; fraction unbound [17]: 0.079 to 0.155; Activity (Staphylococcus aureus [18]): 123.1 mg/kg/day; fraction unbound [19]: 0.296 to 0.437; half-life [20]: 20.4 min; fraction unbound [21]: 0.129 to 0.246 |
